Among the data in patent US20230136562A1, “SPIROUREA DERIVATIVES” (Idorsia Pharmaceuticals Ltd, priority 2020, published 2023) are IC50 values, retold here.

This assay deals with primary neuronal cultures from embryonic rat brains. Kind of assay: Rat oscillation assay (FLIPR, neuronal calcium oscillations). It counts as cell-based. The settings on record: Rattus norvegicus. In short, it runs like this: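 Cortical neurons from E18 Wistar rat embryos, cultured 8–10 days at high density, loaded with 1 μM Fluo-8 AM; calcium oscillations recorded by FLIPR once per second in Mg-free HBSS with 2 mM CaCl2, 20 mM HEPES, pH 7.4. Two acquisitions ("Acute", 500 sec, compound added at 250 sec; "20 min"), ± Kv7 blocker XE-991.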

Where [1] appears, read: 20 min, AUC of fluorescence measured 20 min after compound addition, read-out: FLIPR: IC50 [nM] 20 min.
[2] abbreviates: Acute phase, ratio of AUC fluorescence before and after compound addition, read-out: FLIPR: IC50 [nM] acute.

Where two headings read alike, the source gives them in different places.

In general, IC50 refers to the concentration that gives 50% inhibition. For `O=C(NC1CC2(CCC2)C1)NC(CCO)c1cccc(C(F)(F)F)c1` (racemic) [Example 74, (±)-1-[3-Hydroxy-1-(3-trifluoromethyl-phenyl)-propyl]-3-spiro[3.3]hept-2-yl-urea], the IC50 under setting [1] was found to be 30 nM and the IC50 under setting [2] was 27 nM.

For the molecule `CC(NC(=O)NC1CC2(CCC2)C1)c1cccc(OCC(F)(F)F)c1Cl` (racemic) [Example 30, (±)-1-{1-[2-Chloro-3-(2,2,2-trifluoro-ethoxy)-phenyl]-ethyl}-3-spiro[3.3]hept-2-yl-urea], the IC50 reads like this: under setting [1], 269 nM; under setting [2], 252 nM.

In the case of `COCC(NC(=O)NC1CC2(CCC2)C1)c1cccc(OCC(F)(F)F)c1` (racemic) [Example 91, (±)-1-{2-Methoxy-1-[3-(2,2,2-trifluoro-ethoxy)-phenyl]-ethyl}-3-spiro[3.3]hept-2-yl-urea], the 50% inhibitory concentration (IC50) under setting [1] was found to be 1.4 nM and the IC50 under setting [2] worked out at 3.4 nM.

On to `O=C(NC1CC2(CCC2)C1)NC(c1cccc(C(F)(F)F)c1)C1CC1` (racemic) [Example 24, (±)-1-[Cyclopropyl-(3-trifluoromethyl-phenyl)-methyl]-3-spiro[3.3]hept-2-yl-urea], for which the IC50 is, setting by setting: under setting [1], 8.6 nM; under setting [2], 14 nM.

With `CS(=O)(=O)CC(NC(=O)NC1CC2(CCC2)C1)c1cccc(C(F)(F)F)c1` (racemic) [Example 69, (±)-1-[2-Methanesulfonyl-1-(3-trifluoromethyl-phenyl)-ethyl]-3-spiro[3.3]hept-2-yl-urea], the IC50 runs as follows: under setting [1], 83 nM; under setting [2], 95 nM.

On to `COCC(NC(=O)NC1CC2(CC2)C1)c1cccc(C(F)(F)F)c1` (racemic) [Example 147, (±)-1-[2-Methoxy-1-(3-trifluoromethyl-phenyl)-ethyl]-3-spiro[2.3]hex-5-yl-urea], for which the IC50 was found to be 23 nM under setting [1] and 18 nM under setting [2].

On to `COc1c(CNC(=O)NC2CC3(CCC3)C2)cccc1C(F)(F)F` [Example 22, 1-(2-Methoxy-3-trifluoromethyl-benzyl)-3-spiro[3.3]hept-2-yl-urea], for which the IC50 under setting [1] stood at 268 nM and the IC50 under setting [2] came to 275 nM.

Consider `Cn1nnc(C(NC(=O)NC2CC3(CCC3)C2)c2cccc(C(F)(F)F)c2)n1` (racemic) [Example 164, (±)-1-[(2-Methyl-2H-tetrazol-5-yl)-(3-trifluoromethyl-phenyl)-methyl]-3-spiro[3.3]hept-2-yl-urea], for which the half-inhibitory concentration (IC50) runs as follows: under setting [1], 619 nM; under setting [2], 267 nM.

Regarding `CNC(=O)C(NC(=O)NC1CC2(CCC2)C1)c1cccc(C(F)(F)F)c1` (racemic) [Example 63, (±)-N-Methyl-2-(3-spiro[3.3]hept-2-yl-ureido)-2-(3-trifluoromethyl-phenyl)-acetamide], the IC50 reads like this: under setting [1], 92 nM; under setting [2], 46 nM.

In the case of `O=C(NCc1cccc(S(F)(F)(F)(F)F)c1)NC1CC2(CC2)C1` [Example 130, 1-(3-(pentafluoro-λ^6-sulfaneyl)benzyl)-3-(spiro[2.3]hexan-5-yl)urea], the half-inhibitory concentration (IC50) was found to be 42 nM under setting [1] and 30 nM under setting [2].

In the case of `O=C(NC1CC2(CCC2)C1)NC(CO)c1cccc(OCC(F)(F)F)c1` (racemic) [Example 87, (±)-1-{2-Hydroxy-1-[3-(2,2,2-trifluoro-ethoxy)-phenyl]-ethyl}-3-spiro[3.3]hept-2-yl-urea], the IC50 under setting [1] was 12 nM and the IC50 under setting [2] was 21 nM.

Regarding `O=C(NCc1ccnc(OC(F)(F)F)c1)NC1CC2(CC2)C1` [Example 153, 1-Spiro[2.3]hex-5-yl-3-(2-trifluoromethoxy-pyridin-4-ylmethyl)-urea], the IC50 amounted to 601 nM under setting [1] and 336 nM under setting [2].

For the molecule `CC(NC(=O)NC1CC2(CCC2)C1)c1cc(Cl)cc(OCC(F)(F)F)c1` (racemic) [Example 33, (±)-1-{1-[3-Chloro-5-(2,2,2-trifluoro-ethoxy)-phenyl]-ethyl}-3-spiro[3.3]hept-2-yl-urea], the IC50 under setting [1] came out at 65 nM and the IC50 under setting [2] was 80 nM.

For `CC(NC(=O)NC1CC2(CCC2)C1)c1cc(OCC(F)(F)F)ncn1` (racemic) [Example 61, (±)-1-Spiro[3.3]hept-2-yl-3-{1-[6-(2,2,2-trifluoro-ethoxy)-pyrimidin-4-yl]-ethyl}-urea], the IC50 is, setting by setting: under setting [1], 25 nM; under setting [2], 14 nM.

On to `COCC(NC(=O)NC1CC2(CCC2)C1)c1ccnc(OC(F)F)c1` (racemic) [Example 10, (±)-1-[1-(2-Difluoromethoxy-pyridin-4-yl)-2-methoxy-ethyl]-3-spiro[3.3]hept-2-yl-urea], for which the IC50 under setting [1] is 6 nM and the concentration for half-maximal inhibition (IC50) under setting [2] is 6.2 nM.

Regarding `O=C(NC1CC2(CC2)C1)NC(CCO)c1cccc(OC(F)(F)F)c1` (racemic) [Example 138, (±)-1-[3-Hydroxy-1-(3-trifluoromethoxy-phenyl)-propyl]-3-spiro[2.3]hex-5-yl-urea], the IC50 came out at 92 nM under setting [1] and 60 nM under setting [2].

On to `O=C(NCc1cccc(OC(F)F)c1)NC1CC2(CCC2)C1` [Example 13, 1-(3-Difluoromethoxy-benzyl)-3-spiro[3.3]hept-2-yl-urea], for which the IC50 is, setting by setting: under setting [1], 133 nM; under setting [2], 88 nM.

Regarding `CS(=O)(=O)CCC(NC(=O)NC1CC2(CCC2)C1)c1cccc(C(F)(F)F)c1` (racemic) [Example 81, (±)-1-[3-Methanesulfonyl-1-(3-trifluoromethyl-phenyl)-propyl]-3-spiro[3.3]hept-2-yl-urea], the half-maximal inhibitory concentration (IC50) is 941 nM under setting [1] and 2180 nM under setting [2].

As for `O=C(NC1CC2(CC2)C1)NC(CO)c1cccc(C(F)(F)F)c1` (racemic) [Example 143, (±)-1-[2-Hydroxy-1-(3-trifluoromethyl-phenyl)-ethyl]-3-spiro[2.3]hex-5-yl-urea], the IC50 by setting is: under setting [1], 61 nM; under setting [2], 42 nM.

For `O=C(NC1CC2(CCC2)C1)NC1COc2ccc(OC(F)(F)F)cc21` (racemic) [Example 11, (±)-1-Spiro[3.3]hept-2-yl-3-(5-trifluoromethoxy-2,3-dihydro-benzofuran-3-yl)-urea], the 50% inhibitory concentration (IC50) worked out at 171 nM under setting [1] and 246 nM under setting [2].

With `Cc1cc(OCC(F)(F)F)cc(C(C)NC(=O)NC2CC3(CCC3)C2)c1` (racemic) [Example 32, (±)-1-{1-[3-Methyl-5-(2,2,2-trifluoro-ethoxy)-phenyl]-ethyl}-3-spiro[3.3]hept-2-yl-urea], the IC50 worked out at 14 nM under setting [1] and 24 nM under setting [2].

Consider `O=C(NC1CC2(CCC2)C1)N1CCc2c(ccnc2OCC(F)(F)F)C1` [Example 53, 5-(2,2,2-Trifluoro-ethoxy)-3,4-dihydro-1H-[2,6]naphthyridine-2-carboxylic acid spiro[3.3]hept-2-ylamide], for which the half-inhibitory concentration (IC50) runs as follows: under setting [1], 226 nM; under setting [2], 185 nM.

`CN(CC(F)(F)F)c1cc(CNC(=O)NC2CC3(CCC3)C2)ccn1` [Example 115, 1-{2-[Methyl-(2,2,2-trifluoro-ethyl)-amino]-pyridin-4-ylmethyl}-3-spiro[3.3]hept-2-yl-urea]: the IC50 reads like this: under setting [1], 241 nM; under setting [2], 185 nM.

`CC(NC(=O)NC1CC2(CC2)C1)c1cccc(OCC(F)(F)F)c1F` (racemic) [Example 131, (±)-1-{1-[2-Fluoro-3-(2,2,2-trifluoro-ethoxy)-phenyl]-ethyl}-3-spiro[2.3]hex-5-yl-urea]: the IC50 by setting is: under setting [1], 52 nM; under setting [2], 29 nM.

Turning to `CC(Oc1ccnc(CNC(=O)NC2CC3(CCC3)C2)c1)C(F)(F)F` (racemic) [Example 117, (±)-1-Spiro[3.3]hept-2-yl-3-[4-(2,2,2-trifluoro-1-methyl-ethoxy)-pyridin-2-ylmethyl]-urea], the IC50 was determined as 286 nM under setting [1] and 195 nM under setting [2].

As for `Cn1nncc1C(NC(=O)NC1CC2(CCC2)C1)c1cccc(C(F)(F)F)c1` (racemic) [Example 165, (±)-1-[(3-Methyl-3H-[1,2,3]triazol-4-yl)-(3-trifluoromethyl-phenyl)-methyl]-3-spiro[3.3] hept-2-yl-urea], the IC50 worked out at 289 nM under setting [1] and 145 nM under setting [2].

As to `COCC(c1ccnc(OCC(F)(F)F)c1)N(C)C(=O)NC1CC2(CCC2)C1` (racemic) [Example 50, (±)-1-{2-Methoxy-1-[2-(2,2,2-trifluoro-ethoxy)-pyridin-4-yl]-ethyl}-1-methyl-3-spiro[3.3]hept-2-yl-urea], the IC50 was 118 nM under setting [1] and 80 nM under setting [2].

`CC(NC(=O)NC1CC2(CCC2)C1)c1cccc(C(F)(F)F)c1` (racemic) [Example 23, (±)-1-Spiro[3.3]hept-2-yl-3-[1-(3-trifluoromethyl-phenyl)-ethyl]-urea]: the IC50 was determined as 4.6 nM under setting [1] and 13 nM under setting [2].

Consider `O=C(NC1CC2(CCC2)C1)NC(CC(F)F)c1cccc(C(F)(F)F)c1` (racemic) [Example 84, (±)-1-[3,3-Difluoro-1-(3-trifluoromethyl-phenyl)-propyl]-3-spiro[3.3]hept-2-yl-urea], for which the IC50 reads like this: under setting [1], 4.2 nM; under setting [2], 5.1 nM.

Consider `Cc1nc(OCC(F)(F)F)cc(C(C)NC(=O)NC2CC3(CCC3)C2)n1` (racemic) [Example 68, (±)-1-{1-[2-Methyl-6-(2,2,2-trifluoro-ethoxy)-pyrimidin-4-yl]-ethyl}-3-spiro[3.3]hept-2-yl-urea], for which the IC50 under setting [1] was 18 nM and the IC50 under setting [2] came out at 18 nM.

On to `Cn1nnnc1C(NC(=O)NC1CC2(CCC2)C1)c1cccc(C(F)(F)F)c1` (racemic) [Example 163, (±)-1-[(1-Methyl-1H-tetrazol-5-yl)-(3-trifluoromethyl-phenyl)-methyl]-3-spiro[3.3]hept-2-yl-urea], for which the IC50 by setting is: under setting [1], 282 nM; under setting [2], 204 nM.

On to `COCC(NC(=O)NC1CC2(CCC2)C1)c1cccc(C(F)(F)F)c1` (racemic) [Example 9, (±)-1-[2-Methoxy-1-(3-trifluoromethyl-phenyl)-ethyl]-3-spiro[3.3]hept-2-yl-urea], for which the IC50 under setting [1] stood at 2.1 nM and the IC50 under setting [2] came out at 5.1 nM.
